Earlier results as cited in patent US7081474B2, “Drugs to improve synaptic transmission” (priority 1994, dated 2006).
Read-outs that look alike come from different tables or passages of the source. No end group written: not given here.

What was measured:
[1] = tested on: slices of rat hippocampus; settings: cited from earlier work
experimental animals = settings: cited from earlier work
[2] = tested on: LTP in hippocampus (CA1 field, dentate gyrus); settings: cited from earlier work
rats = settings: infused into lateral ventricles; cited from earlier work

Compound: mast-cell-degranulating peptide: K+ channel blocker (IKCNCKRHVIKPHICRKICGKN; ends and bridges not checked; cysteine pairing not given here; UniProt P01499 28-49, looked up)
- effect on synaptic responses [1]: long lasting potentiation
- deleterious effects (experimental animals; in vivo): seizures and convulsions

Compound: N[C@@]1(C(=O)O)CC[C@@H](C(=O)O)C1 [1S,3R-ACPD, aminocyclopentane-1S,3R-decarboxylate]
- effect on synaptic responses ([1]; brief application in vitro): long lasting potentiation
- deleterious effects (experimental animals; administered directly into the brain): seizures and convulsions

Compound: NC(CCCP(=O)(O)O)C(=O)O (stereo not shown) [APV, 2-amino-5-phosphonopentanoate]
- effect on LTP induction ([2]; CA1 field and dentate gyrus): prevent LTP from taking place
- effect on LTP already established [2]: no effect
- learning of the task (rats): prevented from learning the task

Compound: CC[N+](CC)(CC)CC [tetraethylammonium]
- effect on synaptic responses [1]: long lasting potentiation

Compound: CC(=O)N[C@@H](CC(C)C)C(=O)N[C@@H](CC(C)C)C(=O)N[C@H](C=O)CCCNC(=N)N [leupeptin]
- LTP on electrical stimulation of the hippocampus ([2]; infusion into lateral ventricles of rats): no longer produces LTP

Compound: O=C(O)CN(CCN(CC(=O)O)CC(=O)O)CC(=O)O [EDTA]
- induction of LTP ([2]; intracellular injection): blocked
